Laboratory results published in PubChem BioAssay AID1963969 (Molecular Pharmacology Branch, DTP, NCI, 2024).

Test system: 817829-284-R-J1-PDC multi-cell spheroid viability
Experiment: Anticancer human tumor 817829-284-R-J1-PDC patient-derived colon adenocarcinoma cell line growth inhibition [PI3K]
Conditions: for IC50: curve of first compound; for viability, T/C: stronger effect = lower value
Description: Combinatorial screen of targeted agents with the PI3K inhibitors inavolisib, alpelisib, duvelisib, and copanlisib in multi-cell type tumor spheroids
A high-throughput screen of multi-cell type tumor spheroids was designed to identify active combinations of targeted small molecules and PI3K pathway inhibitors. Complex spheroids include a stromal component modeled by human endothelial cells (HUVEC) and fibroblasts modeled by human mesenchymal stem cells (MSCs). The concentration ranges selected for each drug and investigational agent were based upon clinically achievable concentrations if the clinical Cmax of the agent was known.
Compounds. The drugs and investigational agents: inavolisib (NSC800729), alpelisib (NSC765974), duvelisib (NSC772469), copanlisib (NSC816437), ipatasertib (NSC767898), afuresertib (NSC778305), talazoparib (NSC767125), sapanisertib (NSC764658), selumetinib (NSC741078), tovorafenib (DAY101, NSC766906), vemurafenib (NSC761431), ravoxertinib (NSC781343), sotorasib (NSC818433), MRTX1133 (NSC 836407), abemaciclib (NSC 768073), palbociclib (NSC758247), venetoclax (NSC 766270), SY5609 (NSC837396), enzalutamide (NSC755605), and darolutamide (NSC825331), were obtained from the National Cancer Institute (NCI) Developmental Therapeutics Program Chemical Repository. The FDA-approved anticancer drug set is available from the NCI Developmental Therapeutics Program. […] The stock solutions were prepared in dimethyl sulfoxide (DMSO, Sigma-Aldrich, St. Louis, MO, cat. D2650) at 800-fold the tested concentration and stored at -70 degrees C prior to their use. All drugs and investigational agents were tested over a range starting from a high concentration at or near the clinical Cmax and decreasing in half-log increments. If the clinical Cmax for an agent had not been determined, the highest concentration tested was 10 microM.
Cell Culture. All cells were maintained in an incubator at 37 degrees C and 5% CO2 with 95% humidity. The PDC lines were cultured according to standard operating procedures established by the NCI PDMR (https://pdmr.cancer.gov/sops/default.htm). All PDCs were thawed and cultured in Matrigel-coated flasks prepared with a working solution of 1X Ham's F-12 nutrient mix, without supplementation (Invitrogen, Waltham, MA, cat. 11765054), 100 U/mL penicillin-streptomycin (Invitrogen, cat. 15140122), and 2.5% Matrigel (Corning Inc., Corning, NY, cat. 354248) for the first three passages. The 354836-022-R-J1-PDC, 475296-252-R-J1-PDC, and 997726-040-R-J2-PDC lines were cultured in 6A media, which includes advanced DMEM/F-12 (Thermo Fisher Scientific, cat. 12634028), 10 mM HEPES (Thermo Fisher Scientific, cat. 15630080), 1X GlutaMAX supplement (Thermo Fisher Scientific, cat. 35050061), 0.1 mg/mL primocin (InvivoGen, San Diego, CA, cat. ant-pm-2), 10% defined fetal bovine serum, heat inactivated (HyClone Laboratories Inc., Logan, UT, cat. SH30070.03HI), 50% L-WRN conditioned media (ATCC, cat. CRL-3276), 1.25 mM N-Acetyl-L-cysteine (Sigma-Aldrich, cat. A9165), 10 mM nicotinamide (Sigma-Aldrich, cat. N0636), 1X B-27 supplement (Thermo Fisher Scientific, cat. 17504044), 1X N-2 supplement (Thermo Fisher Scientific, cat. 17502048), and 10 microM Y-27632 dihydrochloride (Tocris Bioscience, Bristol, United Kingdom, cat. 1254). The 624824-186-R-J2-PDC line was cultured in 6C/Colon 1B media, which includes all 6A media components plus 50 ng/mL human EGF recombinant protein (Thermo Fisher Scientific, cat. PHG0311). […]

[1] = second compound 0.00316 µM, first compound 0.0316 µM
[2] = second compound 0.00316 µM, first compound 0.1 µM
[3] = second compound 0.00316 µM, first compound 0.316 µM
[4] = second compound 0.00316 µM, first compound 1 µM
[5] = second compound 0.00316 µM, first compound 3.16 µM
[6] = second compound 0.00316 µM, first compound 10 µM
[7] = second compound 0.01 µM, first compound 0.0316 µM
[8] = second compound 0.01 µM, first compound 0.1 µM
[9] = second compound 0.01 µM, first compound 0.316 µM
[10] = second compound 0.01 µM, first compound 1 µM
[11] = second compound 0.01 µM, first compound 3.16 µM
[12] = second compound 0.01 µM, first compound 10 µM
[13] = second compound 0.0316 µM, first compound 0.0316 µM
[14] = second compound 0.0316 µM, first compound 0.1 µM
[15] = second compound 0.0316 µM, first compound 0.316 µM
[16] = second compound 0.0316 µM, first compound 1 µM
[17] = second compound 0.0316 µM, first compound 3.16 µM
[18] = second compound 0.0316 µM, first compound 10 µM
[19] = second compound 0.1 µM, first compound 0.0316 µM
[20] = second compound 0.1 µM, first compound 0.1 µM
[21] = second compound 0.1 µM, first compound 0.316 µM
[22] = second compound 0.1 µM, first compound 1 µM
[23] = second compound 0.1 µM, first compound 3.16 µM
[24] = second compound 0.1 µM, first compound 10 µM
[25] = second compound 0.316 µM, first compound 0.0316 µM
[26] = second compound 0.316 µM, first compound 0.1 µM
[27] = second compound 0.316 µM, first compound 0.316 µM
[28] = second compound 0.316 µM, first compound 1 µM
[29] = second compound 0.316 µM, first compound 3.16 µM
[30] = second compound 0.316 µM, first compound 10 µM
[31] = second compound 1 µM, first compound 0.0316 µM
[32] = second compound 1 µM, first compound 0.1 µM
[33] = second compound 1 µM, first compound 0.316 µM
[34] = second compound 1 µM, first compound 1 µM
[35] = second compound 1 µM, first compound 3.16 µM
[36] = second compound 1 µM, first compound 10 µM
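Note: spheroids exposed to agents for seven days before readout.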
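Throughout, for viability, T/C: percent of vehicle DMSO control viability which is 100%.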

Cn1ncc(Cl)c1-c1cc(C(=O)NC(CN)Cc2cccc(F)c2)sc1Cl (centres undefined) + CC(Nc1ccc2c(c1)OCCn1cc(N3C(=O)OCC3C(F)F)nc1-2)C(N)=O
IC50 (second compound 0.00316 µM): < 0.0316 µM
IC50 (second compound 0.01 µM): 0.106 µM
IC50 (second compound 0.0316 µM): < 0.0316 µM
IC50 (second compound 0.1 µM): 0.0416 µM
IC50 (second compound 0.316 µM): < 0.0316 µM
IC50 (second compound 1 µM): < 0.0316 µM
viability, T/C [1]: 73.2%
viability, T/C [2]: 38.6%
viability, T/C [3]: 22.8%
viability, T/C [4]: 16.9%
viability, T/C [5]: 16.3%
viability, T/C [6]: 98.6%
viability, T/C [7]: 81.4%
viability, T/C [8]: 51%
viability, T/C [9]: 22%
viability, T/C [10]: 19.1%
viability, T/C [11]: 14.4%
viability, T/C [12]: 69%
viability, T/C [13]: 49.4%
viability, T/C [14]: 30.6%
viability, T/C [15]: 14.9%
viability, T/C [16]: 16.5%
viability, T/C [17]: 14.7%
viability, T/C [18]: 55.9%
viability, T/C [19]: 56.3%
viability, T/C [20]: 31.4%
viability, T/C [21]: 21%
viability, T/C [22]: 16.7%
viability, T/C [23]: 14%
viability, T/C [24]: 53.2%
viability, T/C [25]: 46.4%
viability, T/C [26]: 33.7%
viability, T/C [27]: 16.8%
viability, T/C [28]: 13.2%
viability, T/C [29]: 11.9%
viability, T/C [30]: 44.7%
viability, T/C [31]: 34.4%
viability, T/C [32]: 25.6%
viability, T/C [33]: 16.7%
viability, T/C [34]: 14.2%
viability, T/C [35]: 12.3%
viability, T/C [36]: 84.7%

Cn1nccc1Nc1nccc(-c2ccn(C(CO)c3ccc(Cl)c(F)c3)c(=O)c2)n1 (centres undefined) + CC(Nc1ccc2c(c1)OCCn1cc(N3C(=O)OCC3C(F)F)nc1-2)C(N)=O
IC50 (second compound 0.00316 µM): 6.06 µM
IC50 (second compound 0.01 µM): 4.63 µM
IC50 (second compound 0.0316 µM): 7.18 µM
IC50 (second compound 0.1 µM): 6.97 µM
IC50 (second compound 0.316 µM): 3.89 µM
IC50 (second compound 1 µM): > 10 µM
viability, T/C [1]: 87.6%
viability, T/C [2]: 72.7%
viability, T/C [3]: 88.3%
viability, T/C [4]: 72.5%
viability, T/C [5]: 83.5%
viability, T/C [6]: 26.2%
viability, T/C [7]: 70%
viability, T/C [8]: 79.8%
viability, T/C [9]: 76.7%
viability, T/C [10]: 70.9%
viability, T/C [11]: 64.1%
viability, T/C [12]: 22.2%
viability, T/C [13]: 90.6%
viability, T/C [14]: 102%
viability, T/C [15]: 90.2%
viability, T/C [16]: 105%
viability, T/C [17]: 98.5%
viability, T/C [18]: 30.9%
viability, T/C [19]: 58.9%
viability, T/C [20]: 84.9%
viability, T/C [21]: 92.3%
viability, T/C [22]: 115%
viability, T/C [23]: 87%
viability, T/C [24]: 33%
viability, T/C [25]: 110%
viability, T/C [26]: 67.6%
viability, T/C [27]: 80.5%
viability, T/C [28]: 60.8%
viability, T/C [29]: 65.7%
viability, T/C [30]: 33.1%
viability, T/C [31]: 55.9%
viability, T/C [32]: 63.7%
viability, T/C [33]: 72.4%
viability, T/C [34]: 80.3%
viability, T/C [35]: 75.9%
viability, T/C [36]: 34.4%
